# Assay results as given in ChEMBL document CHEMBL3392926, “Antiprotozoal Activity Profiling of Approved Drugs: A Starting Point toward Drug Repositioning”.
# Tests used:
# Leishmania donovani [1] = assay: microbe, parasite or virus in culture; assay type: functional, organism-based, MHOM/ET/67/L82; conditions: Leishmania donovani, MHOM/ET/67/L82, 96 h
# Description: DNDI: Leish (macro) in Vitro, 96 hour
# cells [2] = assay type: functional, cell-based; conditions: Mus musculus, NMRI, BalbC or CD1 mice, Macrophage, 96 h
# Description: DNDI: Cytotoxicity in Vitro, 96 hour, in mouse macrophages (infected-amastigotes)
# [3] = system: Trypanosoma brucei rhodesiense; assay: microbe, parasite or virus in culture; assay type: functional, organism-based, STIB 900; conditions: Trypanosoma brucei, STIB 900, 72 h
# Description: DNDI: HAT in Vitro, 72 hour
# Plasmodium falciparum = assay: microbe, parasite or virus in culture; assay type: functional, organism-based, K1; conditions: Plasmodium falciparum, K1, 72 h
# Description: DNDI: Malaria in Vitro, 72 hour
# cells [4] = assay type: functional, cell-based; conditions: Rattus norvegicus, L6, 72 h
# Description: DNDI: Cytotoxicity in Vitro, 72 hour, in rat skeletal myoblast cells
# Trypanosoma cruzi = assay: microbe, parasite or virus in culture; assay type: functional, organism-based, Tulahuen C4 (LacZ); conditions: Trypanosoma cruzi, Tulahuen C4 (LacZ), 96 h
# Description: DNDI: Chagas in Vitro, 96 hour
# Leishmania donovani [5] = assay: microbe, parasite or virus in culture; assay type: functional, organism-based, MHOM/ET/67/L82; conditions: Leishmania donovani, MHOM/ET/67/L82, 72 h
# Description: DNDI: Leish (axenic) in Vitro, 72 hour
SMILES,IC50 (Leishmania donovani [1]) [µM],IC50 (cells [2]) [µM],IC50 [3] [µM],IC50 (Plasmodium falciparum) [µM],IC50 (cells [4]) [µM],IC50 (Trypanosoma cruzi) [µM],IC50 (Leishmania donovani [5]) [µM]
CC(C)CN(C[C@@H](O)[C@H](Cc1ccccc1)NC(=O)O[C@H]1CCOC1)S(=O)(=O)c1ccc(N)cc1,> 59.3,> 59.3,28.5,15.2,160,–,–
CNCC[C@H](Oc1ccc(C(F)(F)F)cc1)c1ccccc1,–,32.3,–,–,15,–,–
CC(C)CN(C[C@@H](O)[C@H](Cc1ccccc1)NC(=O)O[C@H]1CO[C@H]2OCC[C@H]21)S(=O)(=O)c1ccc(N)cc1,> 54.8,–,31.4,46.9,–,92.2,–
CSc1ccc2c(c1)N(CC[C@H]1CCCCN1C)c1ccccc1S2,–,> 81,–,–,> 243,–,–
C[C@@H](Cc1cccc(C(F)(F)F)c1)NCCOC(=O)c1ccccc1,54.4,> 85.4,21.1,6.52,49.1,73.7,–
CCC[C@@]1(CCc2ccccc2)CC(O)=C([C@H](CC)c2cccc(NS(=O)(=O)c3ccc(C(F)(F)F)cn3)c2)C(=O)O1,> 49.8,> 49.8,26.4,44.6,53.4,28.2,1.64
CC(C)(C)NC(=O)[C@@H]1CC2CCCCC2CN1C[C@@H](O)[C@H](Cc1ccccc1)NC(=O)[C@H](CC(N)=O)NC(=O)c1ccc2ccccc2n1 (stereo partly specified),> 44.7,> 44.7,12.3,11.9,18.2,17.1,77.4
C[C@H](N)C12CC3CC(CC(C3)C1)C2,> 167,> 167,13.8,0.97,311,–,–
CC(C)(C)NC(=O)[C@@H]1CN(Cc2cccnc2)CCN1C[C@@H](O)C[C@@H](Cc1ccccc1)C(=O)N[C@H]1c2ccccc2C[C@H]1O,> 42.3,> 42.3,48.2,6.03,> 141,93.5,> 141
Cc1c(O)cccc1C(=O)N[C@@H](CSc1ccccc1)[C@H](O)CN1C[C@H]2CCCC[C@H]2C[C@H]1C(=O)NC(C)(C)C,20.2,> 52.8,20.6,10.4,12.1,10.2,9.62
Nc1nc(N)c2nc(-c3ccccc3)c(N)nc2n1,> 11.8,> 11.8,21.7,17.2,8.53,22.7,–
CN1CC(=O)N2[C@H](c3ccc4c(c3)OCO4)c3[nH]c4ccccc4c3C[C@@H]2C1=O,> 77,> 77,97.6,> 12.8,221,8.6,40.1
CCCSc1ccc2[nH]c(NC(=O)OC)nc2c1 [ALBENDAZOLE],> 3.77,11.3,14.7,–,0.41,12.3,> 113
NC12CC3CC(CC(C3)C1)C2 [AMANTADINE],> 198,> 198,52.8,5.67,215,–,> 595
CN(C)CCC=C1c2ccccc2CCc2ccccc21 [AMITRIPTYLINE],> 10.8,36.1,3.03,1.16,42.2,35.1,–
Clc1ccc2c(c1)C(N1CCNCC1)=Nc1ccccc1O2 [AMOXAPINE],–,31.9,–,–,16.2,–,–
O=C(O)COCCN1CCN(C(c2ccccc2)c2ccc(Cl)cc2)CC1 (stereo unspecified) [CETIRIZINE],> 70.5,> 70.5,99.5,20,149,–,–
CCN(CC)CCCC(C)Nc1ccnc2cc(Cl)ccc12 (stereo unspecified) [CHLOROQUINE],> 58.9,> 58.9,3.81,–,50.6,99.2,> 196
CN/C(=N\CCSCc1nc[nH]c1C)NC#N [CIMETIDINE],> 119,> 119,> 396,29.2,302,–,> 396
CN(C)CCCN1c2ccccc2CCc2ccc(Cl)cc21 [CLOMIPRAMINE],–,31.8,–,–,19.8,–,–
Clc1ccc(C(OCCN2CCCCC2)c2ccccc2)cc1 (stereo unspecified) [CLOPERASTINE],> 30.3,90.9,4.91,0.87,43.4,9.46,–
Nc1ccc(S(=O)(=O)c2ccc(N)cc2)cc1 [DAPSONE],> 121,> 121,–,–,204,–,> 403
CCN(CC)CCOc1ccc(/C(=C(/Cl)c2ccccc2)c2ccccc2)cc1 [ENCLOMIPHENE],–,24.6,–,–,13.1,–,–
